In PMC7316778 (Nature Communications, 2020):
“And” between values parts separate entries of the source, which are not always exact repeats. Identical values can stand only once. Like-named read-outs stand apart in the source and are kept apart here.

Key:
PTK6 (Brk) = PTK6 (Brk) (Homo sapiens, UniProt Q13882); assay: SelectScreen kinase assay
Experimental: (§1) Selectivity profiling assays were performed by the Invitrogen SelectScreen™ Services. […] The concentration of ATP was selected to be equal to the KM, unless indicated otherwise.

PRKACB (PRKAC beta) = PRKACB (PRKAC beta) (Homo sapiens, UniProt P22694); assay: SelectScreen kinase assay; details: for Inhibition at 1 µM (%): PRKACB (PRKAC beta), LanthaScreen Binding
Experimental: as §1

SLK = SLK (Homo sapiens, UniProt Q9H2G2); assay: SelectScreen kinase assay
Experimental: as §1

MAPKAPK2 = MAPKAPK2 (Homo sapiens, UniProt P49137); assay: SelectScreen kinase assay
Experimental: as §1

EPHA8 = EPHA8 (Homo sapiens, UniProt P29322); assay: SelectScreen kinase assay
Experimental: as §1

MATK (HYL) = MATK (HYL) (Homo sapiens, UniProt P42679); assay: SelectScreen kinase assay
Experimental: as §1

AAK1 = AAK1 (Homo sapiens, UniProt Q2M2I8); assay: SelectScreen kinase assay
Experimental: as §1

NEK1 = NEK1 (Homo sapiens, UniProt Q96PY6); assay: SelectScreen kinase assay
Experimental: as §1

CAMKK1 (CAMKKA) = CAMKK1 (CAMKKA) (Homo sapiens, UniProt Q8N5S9); assay: SelectScreen kinase assay
Experimental: as §1

NEK9 = NEK9 (Homo sapiens, UniProt Q8TD19); assay: SelectScreen kinase assay
Experimental: as §1

TGFBR2 = TGFBR2 (Homo sapiens, UniProt P37173); assay: SelectScreen kinase assay
Experimental: as §1

FGR = FGR (Homo sapiens, UniProt P09769); assay: SelectScreen kinase assay
Experimental: as §1

CDK2/cyclin A = CDK2/cyclin A (Homo sapiens, UniProt P24941); assay: SelectScreen kinase assay
Experimental: as §1

FES^S700C = FES^S700C (Homo sapiens, UniProt P07332, S700C); assay: In vitro TR-FRET kinase assay; assay type: biochemical; design: human FES cDNA encoding residues 448–822 or human FER cDNA encoding residues 448–820 was amplified by PCR; made in house; host or cells: E. coli BL21(DE3), co-expressing YopH phosphatase; details: IC50 on FES^WT divided by IC50 on FES^S700C
SIK3 = SIK3 (Homo sapiens, UniProt Q9Y2K2); assay: SelectScreen kinase assay
Experimental: as §1

CDK9/cyclin K = CDK9/cyclin K (Homo sapiens, UniProt P50750); assay: SelectScreen kinase assay; details: for Inhibition at 1 µM (%): CDK9/cyclin K, LanthaScreen Binding
Experimental: as §1

MAP4K2 (GCK) = MAP4K2 (GCK) (Homo sapiens, UniProt Q12851); assay: SelectScreen kinase assay
Experimental: as §1

DAPK1 = DAPK1 (Homo sapiens, UniProt P53355); assay: SelectScreen kinase assay
Experimental: as §1

GRK5 = GRK5 (Homo sapiens, UniProt P34947); assay: SelectScreen kinase assay
Experimental: as §1

CAMK1G (CAMKI gamma) = CAMK1G (CAMKI gamma) (Homo sapiens, UniProt Q96NX5); assay: SelectScreen kinase assay; details: for Inhibition at 1 µM (%): CAMK1G (CAMKI gamma), ZLYTE, ATP Km app
Experimental: as §1

DDR1 = DDR1 (Homo sapiens, UniProt Q08345); assay: SelectScreen kinase assay
Experimental: as §1

PLK2 = PLK2 (Homo sapiens, UniProt Q9NYY3); assay: SelectScreen kinase assay
Experimental: as §1

RET = RET (Homo sapiens, UniProt P07949); assay: SelectScreen kinase assay
Experimental: as §1

NEK8 = NEK8 (Homo sapiens, UniProt Q86SG6); assay: SelectScreen kinase assay
Experimental: as §1

AMPK A1/B1/G1 = AMPK A1/B1/G1 (Homo sapiens, UniProt Q13131); assay: SelectScreen kinase assay
Experimental: as §1

MINK1 = MINK1 (Homo sapiens, UniProt Q8N4C8); assay: SelectScreen kinase assay
Experimental: as §1

[1] = 1 h, 1 μM WEL028, 1 h preincubation
[2] = read-out: Inhibition at 1 µM (%), 1 µM, ZLYTE, ATP Km app
[3] = 1 µM, LanthaScreen Binding, listed as WEL028, 1 µM
[4] = read-out: Inhibition at 1 µM (%)

Sequence of FGR (P09769 whole entry): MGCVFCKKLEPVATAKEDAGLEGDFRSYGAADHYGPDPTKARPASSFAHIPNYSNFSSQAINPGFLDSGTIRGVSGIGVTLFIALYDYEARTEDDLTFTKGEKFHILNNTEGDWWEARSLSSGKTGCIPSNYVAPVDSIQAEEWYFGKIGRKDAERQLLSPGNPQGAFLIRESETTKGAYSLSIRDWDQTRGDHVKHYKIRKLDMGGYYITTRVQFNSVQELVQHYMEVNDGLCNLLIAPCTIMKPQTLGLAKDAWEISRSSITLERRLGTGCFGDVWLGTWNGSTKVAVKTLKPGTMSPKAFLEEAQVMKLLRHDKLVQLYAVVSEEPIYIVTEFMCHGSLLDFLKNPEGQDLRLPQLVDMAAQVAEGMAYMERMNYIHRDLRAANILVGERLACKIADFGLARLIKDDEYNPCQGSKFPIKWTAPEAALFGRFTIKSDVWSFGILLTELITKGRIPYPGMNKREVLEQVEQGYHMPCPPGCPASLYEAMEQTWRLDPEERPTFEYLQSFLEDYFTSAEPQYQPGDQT
Sequence of CAMK1G (CAMKI gamma) (Q96NX5 whole entry): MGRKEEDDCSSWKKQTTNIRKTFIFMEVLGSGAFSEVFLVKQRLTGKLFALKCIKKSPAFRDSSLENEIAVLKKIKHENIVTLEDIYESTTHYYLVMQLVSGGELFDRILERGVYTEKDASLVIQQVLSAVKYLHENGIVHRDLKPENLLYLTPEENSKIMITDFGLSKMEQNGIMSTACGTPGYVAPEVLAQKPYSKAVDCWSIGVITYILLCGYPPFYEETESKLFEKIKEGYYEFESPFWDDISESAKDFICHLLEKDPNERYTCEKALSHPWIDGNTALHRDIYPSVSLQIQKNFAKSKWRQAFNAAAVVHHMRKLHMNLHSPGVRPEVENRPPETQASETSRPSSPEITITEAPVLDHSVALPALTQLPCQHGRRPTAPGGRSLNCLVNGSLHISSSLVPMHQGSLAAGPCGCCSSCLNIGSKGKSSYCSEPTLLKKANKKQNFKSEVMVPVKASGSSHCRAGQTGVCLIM
Sequence of PTK6 (Brk) (Q13882 whole entry): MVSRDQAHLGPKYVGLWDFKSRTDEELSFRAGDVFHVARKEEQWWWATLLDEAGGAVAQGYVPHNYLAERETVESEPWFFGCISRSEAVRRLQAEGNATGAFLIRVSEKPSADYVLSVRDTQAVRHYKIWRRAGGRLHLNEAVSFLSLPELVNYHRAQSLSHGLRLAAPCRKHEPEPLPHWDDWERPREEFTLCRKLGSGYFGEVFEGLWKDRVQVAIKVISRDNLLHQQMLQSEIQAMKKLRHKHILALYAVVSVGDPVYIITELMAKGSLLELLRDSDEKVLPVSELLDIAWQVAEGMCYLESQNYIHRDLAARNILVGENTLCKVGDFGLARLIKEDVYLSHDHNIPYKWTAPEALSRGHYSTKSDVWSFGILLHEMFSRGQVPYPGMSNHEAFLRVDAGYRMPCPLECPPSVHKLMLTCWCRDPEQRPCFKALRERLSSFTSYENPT
Sequence of SLK (Q9H2G2 whole entry): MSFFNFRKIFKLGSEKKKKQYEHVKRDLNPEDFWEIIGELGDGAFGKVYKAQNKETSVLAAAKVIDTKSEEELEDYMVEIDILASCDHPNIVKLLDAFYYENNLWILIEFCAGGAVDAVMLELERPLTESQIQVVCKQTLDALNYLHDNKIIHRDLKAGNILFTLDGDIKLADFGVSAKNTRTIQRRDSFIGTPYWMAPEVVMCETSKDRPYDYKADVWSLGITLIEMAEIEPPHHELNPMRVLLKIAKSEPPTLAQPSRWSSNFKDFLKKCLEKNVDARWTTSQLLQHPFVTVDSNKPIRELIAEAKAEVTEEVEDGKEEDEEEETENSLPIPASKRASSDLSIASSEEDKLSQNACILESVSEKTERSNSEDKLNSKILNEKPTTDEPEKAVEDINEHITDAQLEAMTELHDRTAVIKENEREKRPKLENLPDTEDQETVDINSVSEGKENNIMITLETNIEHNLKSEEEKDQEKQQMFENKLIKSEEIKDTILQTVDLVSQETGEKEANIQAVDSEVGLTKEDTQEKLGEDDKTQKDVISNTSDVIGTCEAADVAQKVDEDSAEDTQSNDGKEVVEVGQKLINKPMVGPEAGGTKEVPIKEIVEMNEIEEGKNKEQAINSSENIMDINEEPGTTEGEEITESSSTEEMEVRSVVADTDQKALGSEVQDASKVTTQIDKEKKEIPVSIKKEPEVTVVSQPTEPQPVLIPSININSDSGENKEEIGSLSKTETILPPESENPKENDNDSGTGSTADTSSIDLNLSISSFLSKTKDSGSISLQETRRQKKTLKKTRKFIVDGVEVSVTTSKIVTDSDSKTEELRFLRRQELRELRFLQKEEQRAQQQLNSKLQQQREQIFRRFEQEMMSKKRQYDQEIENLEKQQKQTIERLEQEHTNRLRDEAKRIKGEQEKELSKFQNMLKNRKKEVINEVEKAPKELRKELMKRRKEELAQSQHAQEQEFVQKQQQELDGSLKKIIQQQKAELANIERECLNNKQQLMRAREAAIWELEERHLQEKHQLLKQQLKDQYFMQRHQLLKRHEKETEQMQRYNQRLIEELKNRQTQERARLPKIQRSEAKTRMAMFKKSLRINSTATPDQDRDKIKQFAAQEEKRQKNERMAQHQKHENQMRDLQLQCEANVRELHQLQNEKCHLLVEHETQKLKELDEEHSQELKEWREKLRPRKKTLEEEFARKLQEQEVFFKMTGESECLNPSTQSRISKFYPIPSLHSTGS
Sequence of MINK1 (Q8N4C8 whole entry): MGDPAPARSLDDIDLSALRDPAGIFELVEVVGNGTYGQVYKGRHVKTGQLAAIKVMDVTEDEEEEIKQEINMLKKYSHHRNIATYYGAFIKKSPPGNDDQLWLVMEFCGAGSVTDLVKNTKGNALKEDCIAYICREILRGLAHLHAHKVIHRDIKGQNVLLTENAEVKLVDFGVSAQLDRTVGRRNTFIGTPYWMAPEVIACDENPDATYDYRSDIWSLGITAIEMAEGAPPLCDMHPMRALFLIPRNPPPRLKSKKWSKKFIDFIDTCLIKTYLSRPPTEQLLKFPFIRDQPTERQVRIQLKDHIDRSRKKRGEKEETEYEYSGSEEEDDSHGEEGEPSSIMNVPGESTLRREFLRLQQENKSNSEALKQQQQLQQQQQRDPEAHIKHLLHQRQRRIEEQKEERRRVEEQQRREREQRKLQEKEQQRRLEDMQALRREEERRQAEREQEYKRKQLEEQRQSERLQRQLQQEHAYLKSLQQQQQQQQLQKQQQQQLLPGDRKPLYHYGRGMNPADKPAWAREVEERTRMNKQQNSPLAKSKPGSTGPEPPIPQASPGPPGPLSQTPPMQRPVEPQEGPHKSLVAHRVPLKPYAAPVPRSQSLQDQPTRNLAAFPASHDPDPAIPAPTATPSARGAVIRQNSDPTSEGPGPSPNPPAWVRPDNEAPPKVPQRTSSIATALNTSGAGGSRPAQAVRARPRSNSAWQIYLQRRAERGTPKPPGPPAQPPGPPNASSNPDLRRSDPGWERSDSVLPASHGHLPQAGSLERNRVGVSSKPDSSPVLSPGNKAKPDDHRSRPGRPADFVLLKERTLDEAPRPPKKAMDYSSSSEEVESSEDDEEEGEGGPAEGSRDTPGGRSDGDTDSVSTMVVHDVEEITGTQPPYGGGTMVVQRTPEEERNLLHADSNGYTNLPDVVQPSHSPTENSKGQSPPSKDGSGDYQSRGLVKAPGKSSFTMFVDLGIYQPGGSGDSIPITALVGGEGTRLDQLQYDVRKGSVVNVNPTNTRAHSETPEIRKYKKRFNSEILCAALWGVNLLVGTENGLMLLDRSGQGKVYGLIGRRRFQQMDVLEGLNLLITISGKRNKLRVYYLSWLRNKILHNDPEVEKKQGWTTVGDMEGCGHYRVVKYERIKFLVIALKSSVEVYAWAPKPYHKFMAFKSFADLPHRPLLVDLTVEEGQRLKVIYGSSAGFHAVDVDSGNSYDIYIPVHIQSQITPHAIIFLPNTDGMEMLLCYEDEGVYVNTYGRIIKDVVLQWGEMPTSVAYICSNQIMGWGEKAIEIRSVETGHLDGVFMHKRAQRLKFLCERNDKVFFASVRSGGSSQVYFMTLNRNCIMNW
Sequence of AAK1 (Q2M2I8 whole entry): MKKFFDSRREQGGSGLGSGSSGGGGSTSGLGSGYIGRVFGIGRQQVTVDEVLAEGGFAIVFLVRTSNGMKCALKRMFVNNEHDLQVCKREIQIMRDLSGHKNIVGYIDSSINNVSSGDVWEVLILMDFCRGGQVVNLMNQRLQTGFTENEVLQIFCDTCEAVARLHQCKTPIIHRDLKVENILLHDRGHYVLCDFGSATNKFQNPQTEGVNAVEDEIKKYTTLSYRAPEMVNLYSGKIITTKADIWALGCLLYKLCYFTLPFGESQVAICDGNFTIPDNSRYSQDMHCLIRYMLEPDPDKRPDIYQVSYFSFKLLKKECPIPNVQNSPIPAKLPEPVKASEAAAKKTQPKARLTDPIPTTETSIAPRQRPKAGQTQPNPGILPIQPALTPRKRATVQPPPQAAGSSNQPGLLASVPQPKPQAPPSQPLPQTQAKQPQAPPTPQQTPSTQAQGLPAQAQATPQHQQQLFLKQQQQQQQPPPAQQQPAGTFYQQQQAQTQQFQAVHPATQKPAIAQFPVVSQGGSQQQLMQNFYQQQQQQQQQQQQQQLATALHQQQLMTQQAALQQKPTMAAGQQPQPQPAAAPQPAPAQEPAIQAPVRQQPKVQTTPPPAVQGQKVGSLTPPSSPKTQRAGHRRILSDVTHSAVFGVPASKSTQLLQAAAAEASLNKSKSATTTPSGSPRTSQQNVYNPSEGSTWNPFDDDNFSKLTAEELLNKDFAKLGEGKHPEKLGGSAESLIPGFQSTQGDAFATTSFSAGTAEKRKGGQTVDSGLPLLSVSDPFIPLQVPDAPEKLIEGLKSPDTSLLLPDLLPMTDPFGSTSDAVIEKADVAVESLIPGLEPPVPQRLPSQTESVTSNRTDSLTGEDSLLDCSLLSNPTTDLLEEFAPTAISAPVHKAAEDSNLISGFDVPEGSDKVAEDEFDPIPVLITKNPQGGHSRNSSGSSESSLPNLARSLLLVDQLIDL

C#CCOc1ccc(Nc2ncc(Cl)c(Nc3ccccc3NC(=O)C=C)n2)c(OC)c1 [Compound 6]
Inhibition at 1 µM (%) (PTK6 (Brk); 1 µM, ZLYTE, ATP Km app, listed as WEL028, 1 µM): 29% | inhibition at 1 µM (PTK6 (Brk); [1]): 31% | inhibition at 1 µM (PTK6 (Brk); [2]): 33% | inhibition at 1 µM (PRKACB (PRKAC beta); [1]): 8% | Inhibition at 1 µM (%) (PRKACB (PRKAC beta)): 12% | Inhibition at 1 µM (%) (PRKACB (PRKAC beta); listed as WEL028, 1 µM): 5% | Inhibition at 1 µM (%) (SLK; [3]): 1% and 7% | inhibition at 1 µM (SLK; [1]): 4% | inhibition at 1 µM (MAPKAPK2; [1]): 7% | Inhibition at 1 µM (%) (MAPKAPK2; MAPKAPK2, 1 µM, ZLYTE, ATP Km app, listed as WEL028, 1 µM): 5% | inhibition at 1 µM (MAPKAPK2; read-out: Inhibition at 1 µM (%), MAPKAPK2, 1 µM, ZLYTE, ATP Km app): 8% | inhibition at 1 µM (EPHA8; 1 h): -7% | inhibition at 1 µM (EPHA8; [4]): -7% | inhibition at 1 µM (MATK (HYL); 1 h): 8% | inhibition at 1 µM (MATK (HYL); [4]): 8% | inhibition at 1 µM (AAK1; [1]): 33% | Inhibition at 1 µM (%) (AAK1; AAK1, 1 µM, LanthaScreen Binding, listed as WEL028, 1 µM): 30% | inhibition at 1 µM (AAK1; read-out: Inhibition at 1 µM (%), AAK1, 1 µM, LanthaScreen Binding): 35% | inhibition at 1 µM (NEK1; [1]): 6% | Inhibition at 1 µM (%) (NEK1; NEK1, 1 µM, ZLYTE, ATP Km app): 12% | inhibition at 1 µM (CAMKK1 (CAMKKA); [1]): 22% | Inhibition at 1 µM (%) (CAMKK1 (CAMKKA); CAMKK1 (CAMKKA), 1 µM, LanthaScreen Binding, listed as WEL028, 1 µM): 24% | inhibition at 1 µM (CAMKK1 (CAMKKA); read-out: Inhibition at 1 µM (%), CAMKK1 (CAMKKA), 1 µM, LanthaScreen Binding): 20% | inhibition at 1 µM (NEK9; [1]): -8% | Inhibition at 1 µM (%) (NEK9; NEK9, 1 µM, ZLYTE, ATP Km app, listed as WEL028, 1 µM): -7% and -9% | Inhibition at 1 µM (%) (TGFBR2; [3]): 11% | inhibition at 1 µM (TGFBR2; [1]): 14% | inhibition at 1 µM (TGFBR2; read-out: Inhibition at 1 µM (%), 1 µM, LanthaScreen Binding): 17% | inhibition at 1 µM (FGR; [1]): 10% | Inhibition at 1 µM (%) (FGR; FGR, 1 µM, ZLYTE, ATP Km app, listed as WEL028, 1 µM): 12% | inhibition at 1 µM (FGR; read-out: Inhibition at 1 µM (%), FGR, 1 µM, ZLYTE, ATP Km app): 7% | Inhibition (%) (CDK2/cyclin A; 1 μM WEL028, 1 h preincubation): -3% | Inhibition at 1 µM (%) (CDK2/cyclin A; CDK2/cyclin A, 1 µM, ZLYTE, ATP Km app, listed as WEL028, 1 µM): -5% and 0% | Apparent fold selectivity (FES^S700C): 232 fold | Inhibition (%) (SIK3; 1 μM WEL028, 1 h preincubation): 2% | Inhibition at 1 µM (%) (SIK3; [3]): 0% and 5% | inhibition at 1 µM (CDK9/cyclin K; [1]): 5% | Inhibition at 1 µM (%) (CDK9/cyclin K): 2% | Inhibition at 1 µM (%) (CDK9/cyclin K; listed as WEL028, 1 µM): 7% | inhibition at 1 µM (MAP4K2 (GCK); [1]): -12% | Inhibition at 1 µM (%) (MAP4K2 (GCK); MAP4K2 (GCK), 1 µM, ZLYTE, ATP Km app): -23% | inhibition at 1 µM (DAPK1; [1]): 12% | Inhibition at 1 µM (%) (DAPK1; DAPK1, 1 µM, Adapta, ATP Km app, listed as WEL028, 1 µM): 13% | inhibition at 1 µM (DAPK1; read-out: Inhibition at 1 µM (%), DAPK1, 1 µM, Adapta, ATP Km app): 12% | inhibition at 1 µM (GRK5; 1 h): 4% | inhibition at 1 µM (GRK5; [4]): 4% | inhibition at 1 µM (CAMK1G (CAMKI gamma); [1]): 2% | Inhibition at 1 µM (%) (CAMK1G (CAMKI gamma)): 3% | Inhibition at 1 µM (%) (CAMK1G (CAMKI gamma); listed as WEL028, 1 µM): 1% | inhibition at 1 µM (DDR1; [1]): -2% | Inhibition at 1 µM (%) (DDR1; DDR1, 1 µM, LanthaScreen Binding, listed as WEL028, 1 µM): -3% | Inhibition (%) (PLK2; 1 μM WEL028, 1 h preincubation): 12% | Inhibition at 1 µM (%) (PLK2; PLK2, 1 µM, ZLYTE, ATP Km app, listed as WEL028, 1 µM): 15% | inhibition at 1 µM (PLK2; read-out: Inhibition at 1 µM (%), PLK2, 1 µM, ZLYTE, ATP Km app): 8% | inhibition at 1 µM (RET; [1]): 7% | inhibition at 1 µM (RET; [2]): 6% | inhibition at 1 µM (NEK8; [1]): 7% | Inhibition at 1 µM (%) (NEK8; NEK8, 1 µM, LanthaScreen Binding, listed as WEL028, 1 µM): 2% and 12% | inhibition at 1 µM (AMPK A1/B1/G1; [1]): 13% | Inhibition at 1 µM (%) (AMPK A1/B1/G1; AMPK A1/B1/G1, 1 µM, ZLYTE, ATP Km app): 21% | inhibition at 1 µM (MINK1; [1]): 20% | Inhibition at 1 µM (%) (MINK1; MINK1, 1 µM, ZLYTE, ATP Km app, listed as WEL028, 1 µM): 21% | inhibition at 1 µM (MINK1; read-out: Inhibition at 1 µM (%), MINK1, 1 µM, ZLYTE, ATP Km app): 19%
